Data: ChEMBL document CHEMBL1201862, “PubChem BioAssay data set” (2004)
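Values below derive from 48-hour exposures of cells grown in 96-well plates, with endpoints linearly interpolated between the two concentrations bracketing the appropriate inhibition level. The concentration for 50% growth inhibition is given as GI50.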 The source made the active and inactive calls. Rule as the data show it: active = GI50 up to about 1.1 µM and inactive = higher.

Key:
Experiment in all cases: inhibition of tumour cell growth, NCI panel, 48 h
[1] = test system: IGROV-1
[2] = test system: T47D
[3] = test system: EKVX
[4] = test system: SK-OV-3
[5] = test system: NCI-H23
[6] = test system: RPMI-8226
[7] = test system: U-251
[8] = test system: OVCAR-5
[9] = test system: SF-268
[10] = test system: SNB-75
[11] = test system: CAKI-1
[12] = test system: MDA-MB-435
[13] = test system: HOP-62
[14] = test system: A498
[15] = test system: DU-145
[16] = test system: SK-MEL-2
[17] = test system: NCI-H522
[18] = test system: OVCAR-8
[19] = test system: LOX IMVI
[20] = test system: M14

Compound	GI50 [1]	GI50 [2]	GI50 [3]	GI50 [4]	GI50 [5]	GI50 [6]	GI50 [7]	GI50 [8]	GI50 [9]	GI50 [10]	GI50 [11]	GI50 [12]	GI50 [13]	GI50 [14]	GI50 [15]	GI50 [16]	GI50 [17]	GI50 [18]	GI50 [19]	GI50 [20]
CCCCCCCCCCCC1NC(N)=NC(CCCO)=C1C(=O)OC (stereo not given)	1.84 µM (inactive)	5.09 µM (inactive)	16.1 µM (inactive)	2.33 µM (inactive)	2.08 µM (inactive)	2.32 µM (inactive)	1.67 µM (inactive)	6.62 µM (inactive)	2.48 µM (inactive)	2.79 µM (inactive)	7.06 µM (inactive)	1.88 µM (inactive)	2.82 µM (inactive)	14.6 µM (inactive)	9.35 µM (inactive)	1.63 µM (inactive)	1.77 µM (inactive)	2.3 µM (inactive)	1.66 µM (inactive)	1.93 µM (inactive)
CC(C)OC(=O)Nc1c([N+](=O)[O-])cc(C(F)(F)F)cc1[N+](=O)[O-]	> 66.7 µM (inactive)	> 100 µM (inactive)	> 100 µM (inactive)	40.3 µM (inactive)	69.5 µM (inactive)	> 100 µM (inactive)	97.9 µM (inactive)	> 100 µM (inactive)	39.4 µM (inactive)	5.38 µM (inactive)	> 100 µM (inactive)	> 100 µM (inactive)	93.3 µM (inactive)	> 100 µM (inactive)	> 100 µM (inactive)	> 73.1 µM (inactive)	> 95.7 µM (inactive)	75.7 µM (inactive)	> 100 µM (inactive)	> 100 µM (inactive)
COC(=O)C1CCC(=O)N1CN(C(C)=O)c1ccccc1Cl (stereo not given)	> 100 µM (inactive)	> 100 µM (inactive)	> 100 µM (inactive)	> 100 µM (inactive)	> 100 µM (inactive)	> 100 µM (inactive)	> 100 µM (inactive)	> 100 µM (inactive)	> 100 µM (inactive)	> 100 µM (inactive)	> 100 µM (inactive)	> 100 µM (inactive)	> 100 µM (inactive)	> 100 µM (inactive)	> 100 µM (inactive)	> 100 µM (inactive)	> 100 µM (inactive)	> 100 µM (inactive)	> 100 µM (inactive)	> 100 µM (inactive)
Cc1cc2c(cc1C)N1C(Cl)=C3CCCCC3=C(C#N)C1N2 (stereo not given)	6.76 µM (inactive)	12.2 µM (inactive)	16.3 µM (inactive)	18.6 µM (inactive)	4.98 µM (inactive)	5.25 µM (inactive)	9.42 µM (inactive)	21.1 µM (inactive)	9.25 µM (inactive)	23.6 µM (inactive)	5.04 µM (inactive)	6.03 µM (inactive)	14.3 µM (inactive)	19.1 µM (inactive)	19.3 µM (inactive)	14.6 µM (inactive)	2 µM (inactive)	11.5 µM (inactive)	2.19 µM (inactive)	7.38 µM (inactive)
COc1cc2cc(C(=O)N3CC(CCl)c4ccc(NCCN)cc43)[nH]c2c(OC)c1OC (stereo not given)	0.112 µM (active)	0.301 µM (active)	0.528 µM (active)	0.282 µM (active)	0.0822 µM (active)	0.153 µM (active)	0.175 µM (active)	0.337 µM (active)	0.242 µM (active)	0.232 µM (active)	0.143 µM (active)	0.2 µM (active)	0.166 µM (active)	0.184 µM (active)	0.08 µM (active)	0.179 µM (active)	0.046 µM (active)	0.167 µM (active)	0.155 µM (active)	0.198 µM (active)
CC1COC(c2cn[nH]c2C(N)=O)C1O (stereo not given)	> 100 µM (inactive)	> 100 µM (inactive)	> 100 µM (inactive)	> 100 µM (inactive)	> 100 µM (inactive)	> 100 µM (inactive)	> 100 µM (inactive)	> 100 µM (inactive)	> 100 µM (inactive)	> 100 µM (inactive)	> 100 µM (inactive)	> 100 µM (inactive)	> 100 µM (inactive)	> 100 µM (inactive)	> 100 µM (inactive)	> 100 µM (inactive)	> 100 µM (inactive)	> 100 µM (inactive)	> 100 µM (inactive)	> 100 µM (inactive)
O=S(=O)(O)c1ccc2c(/N=N/c3ccc(S(=O)(=O)O)c4ccccc34)c(O)c(S(=O)(=O)O)cc2c1	> 100 µM (inactive)	> 100 µM (inactive)	> 100 µM (inactive)	> 100 µM (inactive)	> 100 µM (inactive)	> 100 µM (inactive)	> 100 µM (inactive)	> 100 µM (inactive)	> 100 µM (inactive)	> 100 µM (inactive)	> 100 µM (inactive)	> 100 µM (inactive)	> 100 µM (inactive)	> 100 µM (inactive)	> 100 µM (inactive)	> 100 µM (inactive)	> 100 µM (inactive)	> 100 µM (inactive)	> 100 µM (inactive)	> 100 µM (inactive)
CC(=O)OC(C)c1cc2c(s1)C(=O)c1scc(C(C)OC(C)=O)c1C2=O (stereo not given)	0.662 µM (active)	0.661 µM (active)	0.847 µM (active)	2.16 µM (inactive)	0.157 µM (active)	0.223 µM (active)	0.25 µM (active)	0.57 µM (active)	0.211 µM (active)	0.185 µM (active)	1.56 µM (inactive)	0.0292 µM (active)	0.191 µM (active)	0.619 µM (active)	0.178 µM (active)	0.227 µM (active)	0.215 µM (active)	0.24 µM (active)	0.118 µM (active)	0.117 µM (active)
CN(C)CCNc1ccc(CO)c2oc3ccc(O)cc3c(=O)c12	19.1 µM (inactive)	13.3 µM (inactive)	21.9 µM (inactive)	14.4 µM (inactive)	11.5 µM (inactive)	12.3 µM (inactive)	12.4 µM (inactive)	16.8 µM (inactive)	9.31 µM (inactive)	12.6 µM (inactive)	21.6 µM (inactive)	13.8 µM (inactive)	10.3 µM (inactive)	12.7 µM (inactive)	20.1 µM (inactive)	16.6 µM (inactive)	4.32 µM (inactive)	7.14 µM (inactive)	11.5 µM (inactive)	15.7 µM (inactive)
O=C1Nc2ccc(S(=O)(=O)O)cc2/C1=N/Nc1ccccc1[N+](=O)[O-]	> 100 µM (inactive)	> 100 µM (inactive)	> 100 µM (inactive)	97.9 µM (inactive)	> 100 µM (inactive)	> 100 µM (inactive)	> 100 µM (inactive)	42.9 µM (inactive)	> 100 µM (inactive)	> 100 µM (inactive)	> 100 µM (inactive)	> 100 µM (inactive)	> 100 µM (inactive)	70.1 µM (inactive)	> 100 µM (inactive)	> 100 µM (inactive)	> 100 µM (inactive)	> 100 µM (inactive)	> 100 µM (inactive)	> 100 µM (inactive)
